Laboratory results as given in BindingDB's records for doi:10.1039/d3md00036b (n/a, 2023).

Biological target: Metallo-beta-lactamase type 2 (Klebsiella pneumoniae, UniProt C7C422)
Test: Binding affinity to bacterial NDM-1 (unknown origin) assessed as inhibition constant

Sequence of Metallo-beta-lactamase type 2 (C7C422 whole entry): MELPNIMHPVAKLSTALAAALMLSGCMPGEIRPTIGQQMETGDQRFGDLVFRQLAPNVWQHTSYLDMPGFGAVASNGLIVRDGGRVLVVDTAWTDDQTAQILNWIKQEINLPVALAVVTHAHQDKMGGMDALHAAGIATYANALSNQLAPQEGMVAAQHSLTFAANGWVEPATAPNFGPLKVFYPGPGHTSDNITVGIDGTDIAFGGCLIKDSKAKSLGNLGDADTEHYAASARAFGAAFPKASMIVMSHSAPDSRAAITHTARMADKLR

`CN1CCN(C(=S)N/N=C/c2ccccc2O)CC1` showed a Ki of 440 pM.
